Molecules are shown by their SMILES. Counter-ions that a name gives are not always drawn.

The Ki is the dissociation constant of the complex between target and ligand, obtained from inhibition or displacement.

Common to all, as to format: biochemical
One test addresses Gelatinase. As to the kind of experiment: MMP inhibition by particle concentration fluorescence technique (gelatinase). To be noted: pH 7.5; 15 min enzyme preincubation; substrate 1-3 h at room temperature; read-out: MMP Inhibition Constants, Gelatinase Ki. The gist of the method:
(§1)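 Compound serially diluted two-fold in 50 mM Tris-HCl pH 7.5, 150 mM NaCl, preincubated 15 min with activated enzyme at room temperature. Fluorescein/biotin-tagged substrate then added for 1-3 hours in the dark. Intact substrate captured on avidin-coated particles; fluorescence signal indicates inhibition.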

A further test addresses T1, Collagenase (Homo sapiens, UniProt P03956).
T1 sequence (P03956 100-469): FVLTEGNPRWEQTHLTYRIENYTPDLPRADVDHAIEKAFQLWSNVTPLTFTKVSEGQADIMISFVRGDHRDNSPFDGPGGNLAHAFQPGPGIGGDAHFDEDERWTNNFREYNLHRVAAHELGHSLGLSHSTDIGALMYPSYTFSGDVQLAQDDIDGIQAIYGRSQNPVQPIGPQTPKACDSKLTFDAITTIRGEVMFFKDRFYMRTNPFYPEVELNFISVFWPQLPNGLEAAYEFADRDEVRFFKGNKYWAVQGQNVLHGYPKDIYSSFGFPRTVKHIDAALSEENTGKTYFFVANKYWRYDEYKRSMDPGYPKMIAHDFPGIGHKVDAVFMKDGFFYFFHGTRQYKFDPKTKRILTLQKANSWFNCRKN
The test is described as follows: MMP inhibition by particle concentration fluorescence technique (collagenase). The following applies: pH 7.5; 15 min enzyme preincubation; substrate 1-3 h at room temperature; read-out: MMP Inhibition Constants, Collagenase Ki. The gist of the method:
as §1

In another test the target is Stromelysin (Homo sapiens, UniProt P08254). The test is described as follows: MMP inhibition by particle concentration fluorescence technique (stromelysin). The following applies: pH 7.5; 15 min enzyme preincubation; substrate 1-3 h at room temperature; read-out: MMP Inhibition Constants, Stromelysin Ki. The gist of the method:
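Fluorescein- and biotin-labelled substrate captured on avidin particles after reaction; intact, uncleaved substrate retains fluorescence, so signal rises with inhibition. Activated enzyme incubated with two-fold serial compound dilutions 15 minutes at room temperature.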

Sequence of Stromelysin (P08254 100-477): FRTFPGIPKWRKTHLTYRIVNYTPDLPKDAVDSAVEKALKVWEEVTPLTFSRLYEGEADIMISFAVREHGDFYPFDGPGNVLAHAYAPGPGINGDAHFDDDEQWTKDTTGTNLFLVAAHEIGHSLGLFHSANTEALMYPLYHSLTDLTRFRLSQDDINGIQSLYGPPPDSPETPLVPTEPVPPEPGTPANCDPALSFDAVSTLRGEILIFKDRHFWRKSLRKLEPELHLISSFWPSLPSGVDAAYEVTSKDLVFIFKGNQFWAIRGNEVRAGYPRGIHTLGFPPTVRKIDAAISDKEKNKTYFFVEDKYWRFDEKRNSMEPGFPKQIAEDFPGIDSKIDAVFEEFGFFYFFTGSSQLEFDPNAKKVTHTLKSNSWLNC

Consider `CC(C)C[C@@]1(CC(=O)NO)CCN([C@@H](Cc2ccccc2)C(=O)NCCc2ccccc2)C1=O` [Example 31, [S-(R*,R*)]-N^3 -Hydroxy-3-(2-methylpropyl)-2-oxo-N^1-(2-phenethyl)-α^1-(phenylmethyl)-1,3-pyrrolidinediacetamide], for which the Ki at Gelatinase was 19.3 nM; on Collagenase it was 96 nM; on Stromelysin it was 517 nM.

Consider `CNC(=O)[C@H](CC(C)C)N1CC[C@](CC(=O)NO)(CC(C)C)C1=O` [Example 32, [S-(R*,R*)]-N^3 -Hydroxy-N^1-methyl-α^1,3-bis(2-methylpropyl)-2-oxo-1,3-pyrrolidinediacetamide], for which the inhibition constant Ki on Gelatinase came out at 50 nM; on Collagenase it was 36 nM; on Stromelysin, 730 nM.

Regarding `CNC(=O)[C@H](Cc1ccccc1)N1CC[C@@](CCC(C)C)(CC(=O)NO)C1=O` [Example 34, [S-(R*,R*)]-N^3 -Hydroxy-N^1-methyl-3-(3-methylbutyl)-2-oxo-α^1-(phenylmethyl)-1,3-pyrrolidinediacetamide], the Ki on Gelatinase came out at 31 nM; on Collagenase, 22 nM; on Stromelysin, 4140 nM.

For the molecule `CC(C)CC1(CC(=O)NO)CNN(CCc2ccccc2)C1=O` (stereo not drawn) [Example 38, N-Hydroxyl-4-(2-methylpropyl)-5-oxo-1-(2-phenylethyl)-4-pyrazolidineacetamide monohydrochloride], the Ki is 14500 nM on Gelatinase, 13300 nM at Collagenase and 31200 nM at Stromelysin.

In the case of `CC(C)C[C@@]1(CC(=O)NO)CCN([C@@H](Cc2ccccc2)C(=O)Nc2ccccc2)C1=O` [Example 39, [S-(R*,R*)]-N^3 -Hydroxy-3-(2-methylpropyl)-2-oxo-N^1-phenyl-α^1-(phenylmethyl)-1,3-pyrrolidinediacetamide], the inhibition constant Ki on Gelatinase was 75.9 nM; at Collagenase, 5.81 nM; at Stromelysin, 101 nM.

With `CC(C)C[C@@]1(CC(=O)NO)CCN([C@@H](Cc2ccccc2)C(=O)NCc2ccccn2)C1=O` [Example 40, [S-(R*,R*)]-N^3 -Hydroxy-3-(2-methylpropyl)-2-oxo-α^1-(phenylmethyl)-N^1-(2-pyridinylmethyl)-1,3-pyrrolidinediacetamide], the Ki at Gelatinase was found to be 10.5 nM; at Collagenase it was 37 nM; at Stromelysin, 1990 nM.

As for `CC(C)C[C@@]1(CC(=O)NO)CCN([C@@H](Cc2ccccc2)C(=O)Nc2ccncc2)C1=O` [Example 41, [S-(R*,R*)]-N^3 -Hydroxy-3-(2-methylpropyl)-2-oxo-α^1-(phenylmethyl)-N^1-(4-pyridinyl)-1,3-pyrrolidinediacetamide], the Ki on Gelatinase turned out to be 2.3 nM; on Collagenase it was 2.8 nM; on Stromelysin, 14 nM.

For `CC(C)C[C@@]1(CC(=O)NO)CCN([C@@H](Cc2ccccc2)C(=O)Nc2ccc(F)cc2)C1=O` [Example 42, [S-(R*,R*)]-N^1-(4-Fluorophenyl)-N^3-hydroxy-3-(2-methylpropyl)-2-oxo-α^1-(phenylmethyl)-1,3-pyrrolidinediacetamide], the Ki on Gelatinase turned out to be 5.4 nM; at Collagenase, 2.44 nM; at Stromelysin it was 25.5 nM.

Regarding `CC(C)C[C@@]1(CC(=O)NO)CCN([C@@H](Cc2ccccc2)C(=O)NC2CCN(Cc3ccccc3)CC2)C1=O` [Example 43, [S-(R*,R*)]-N^3 -Hydroxy-3-(2-methylpropyl)-2-oxo-α^1-(phenylmethyl)-N^1-[1-(phenylmethyl)-4-piperdinyl]-1,3-pyrrolidinediacetamide], the Ki at Gelatinase is 2.3 nM; at Collagenase it was 2.36 nM; on Stromelysin, 1800 nM.

Turning to `CC(C)C[C@@]1(CC(=O)NO)CCN([C@@H](Cc2ccccc2)C(=O)NC2CCNCC2)C1=O` [Example 44, [S-(R*,R*)]-N^3 -Hydroxy-3-(2-methylpropyl)-2-oxo-α^1-(phenylmethyl)-N^1-(4-piperdinyl)-1,3-pyrrolidinediacetamide], the Ki came out at 11 nM on Gelatinase, 20.2 nM on Collagenase and 4000 nM on Stromelysin.

The values are drawn from patent US5712300A, “Hydroxamic acid derivatives useful for the treatment of diseases related to connective tissue degradation” (priority 1997, dated 1998).
